Laboratory results from patent US4510132A, “Compounds for use in antibacterial therapy” (priority 1982, dated 1985).
“Also recorded” adds a separate entry of the source.

What was measured:
[1] = test system: Salmonella typhimurium LT2 strain SL 696; assay: MIC of antibiotics in the presence of polymyxin nonapeptide, microtiter plate, S. typhimurium; assay type: cell-based; settings: for minimum inhibitory concentration (MIC) of the antibiotic: 18 h; for MIC of fusidic acid: S. typhimurium; for factor by which PMBN sensitized the strain to the antibiotic: S. typhimurium strain SL 696, from Table 1
Experimental: (§1) Methods. Smooth Salmonella typhimurium LT2 strain SL 696 (Wilkinson et al 1972 J. Gen. Microbiol. 70,527) was used as indicator organism. It was grown in Luria broth (Miller 1972. Experience in molecular genetics, Cold Spring Harbor Laboratory, New York) at 37° C. in a rotary shaker (220 rpm) into early logarithmic growth phase (Klett 40 units, Klett-Summerson colorimeter, red filter) washed with 0.9% NaCl and resuspended in 0.9% NaCl (final optical density 120 Klett units corresponding to approx. 10^9 cells/ml).
(§2) Erythromycin ethylsuccinate stock solution was prepared by dissolving 5.5 mg of erythromycin […] with 2 ml of 96% ethanol whereafter deionized water was added to a final volume of 5.5 ml. Other antibiotics were readily dissolved in deionized water.
(§3) Experimental procedure: Davis minimal growth medium (Sanderson et al, 1972, Bact. Rev. 36,608) containing glucose (1 g/l), casaminoacids (1 g/l. Difco), tryptophan (20 mg/l), and increasing amounts of a particular antibiotic was inoculated with 10^4 cells per ml of a fresh suspension of indicator bacteria. Aliquots (200 μl) of this inoculated medium were pipetted in wells of a microtiter plate (Titertek, CAT NO. 76-213-05, Flow Laboratories, United States). Each well already contained increasing amounts of the particular polycationic agent in 30 μl of 0.9% NaCl. The plates were sealed with adhesive tape and incubated at 37° C. for 18 h.
(§4) Methods. The known compound, polymyxin E nonapeptide (colistin E nonapeptide, Japanese patent specification Nos. 4178/1971 and 51355/1972) having the following formula: [drawing 5] where leu is leucine, thr is threonine, and dab is diaminobutyric acid, was prepared from polymyxin E (colistin) using an enzymatic ficin treatment as described by Chihara et al (Agr. Biol. Chem. 37,2455, 1973).

[2] = test system: E. coli strain IH 3080 (018:K1); assay: MIC of antibiotics in the presence of polymyxin nonapeptide, microtiter plate, E. coli; assay type: cell-based; settings: for factor by which PMBN sensitized the strain to the antibiotic: E. coli 018:K1 strain IH 3080, from Table 2; for MIC of the antibiotic: E. coli IH 3080
Experimental: as §1, §2, §3
Methods. The methods were those presented in Example 3 except that E. coli was used as the test organism. The E. coli strain was IH 3080 (018:K1) isolated from the cerebrospinal fluid of a neonate with meningitis.
as §4

[3] = test system: E. coli strain IH 3080 (018:K1); assay: Experimental E. coli infection in mice, PMBN combined with erythromycin; assay type: in vivo, female NMRI mice; settings: for Number of dead mice: 10 mice per group
Source text: Methods. […] The mice were followed 7 days for deaths.

[4] = test system: E. coli strains IHE 3080, EH 817, IHE 11038, IHE 11055, IHE 11167; assay: Sensitization of E. coli strains to killing by 10% normal human serum (complement); assay type: cell-based
Experimental: Methods. The strains used were smooth Salmonella typhirmurium LT2 strain SL 696 (Wilkinson et al 1972 J. Gen. Microbiol. 70, 527) and the following E. coli strains isolated at the National Public Health Institute, Helsinki: IHE 3080 (018,K1), EH 817 (018,K1^- derivative of IHE 3080), IHE 11038 (018,K5), IHE 11055 (02,K1), and IHE 11167 (04,K12). Bacteria were grown in Luria broth (Miller 1972. Experiments in molecular genetics, Cold Spring Harbor Laboratory, New York) at 37° C. in a rotary shaker (220 rpm) into early logaritmic growth phase (Klett 40 units, Klett-Summerson colorimeter, red filter) washed with PBS (phosphate buffered saline, 8.0 g of NaCl, 0.2 g of KCl, 1.44 g of Na2 HPO4 x2H2 O and 0.2 g of KH2 PO4 per liter) and resuspended in PBS, (final optical density 120 Klett units corresponding to approx. 10^9 cells/ml).
Pooled normal human serum from 39 healthy blood donors was used as complement source. It was stored at -70° C. before use.
Experimental procedure: 10% NHS in PBS was inoculated with approx. 300 cells of freshly grown bacteria and pipetted in 200 μl aliquots in wells of mictrotiter plate (Titertek®, CAT NO. 76-213-05). The wells already contained increasing amounts of PMBN in 30 μl of 0.9% NaCl. […] The agar plates were incubated overnight at 37° C. and the developed colonies were counted.

[5] = PMBN 0 μg/ml, S. typhimurium SL 696
[6] = PMBN 0.3 μg/ml, S. typhimurium SL 696
[7] = PMBN 1 μg/ml, S. typhimurium SL 696
[8] = PMBN 3 μg/ml, S. typhimurium SL 696
[9] = PMBN 10 μg/ml, S. typhimurium SL 696
[10] = PMBN 30 μg/ml, S. typhimurium SL 696

Compound	minimum inhibitory concentration (MIC) of the antibiotic [1, 5]	minimum inhibitory concentration (MIC) of the antibiotic [1, 6]	minimum inhibitory concentration (MIC) of the antibiotic [1, 7]	minimum inhibitory concentration (MIC) of the antibiotic [1, 8]	minimum inhibitory concentration (MIC) of the antibiotic [1, 9]	minimum inhibitory concentration (MIC) of the antibiotic [1, 10]	factor by which PMBN sensitized the strain to the antibiotic [1]	factor by which PMBN sensitized the strain to the antibiotic [2]	MIC of the antibiotic ([2]; PMBN 0 μg/ml)	MIC of the antibiotic ([2]; PMBN 0.3 μg/ml)	MIC of the antibiotic ([2]; PMBN 1 μg/ml)	MIC of the antibiotic ([2]; PMBN 3 μg/ml)	MIC of the antibiotic ([2]; PMBN 10 μg/ml)	further results
CC(=O)O[C@H]1C[C@@]2(C)[C@@H](C[C@@H](O)[C@H]3[C@@]4(C)CC[C@@H](O)[C@@H](C)[C@@H]4CC[C@@]32C)/C1=C(\CCC=C(C)C)C(=O)O [Fusidic acid, fusidic acid]	300	100	30	30	10	≥ 3	≥ 100 times	100 times	100 µg/mL	3 µg/mL	3 µg/mL	3 µg/mL	1 µg/mL	MIC of fusidic acid ([1]; PMEN 0 μg/ml): 300; MIC of fusidic acid ([1]; PMEN 0.3 μg/ml): 100; MIC of fusidic acid ([1]; PMEN 1.0 μg/ml): 30; MIC of fusidic acid ([1]; PMEN 3.0 μg/ml): 10; MIC of fusidic acid ([1]; PMEN 10 μg/ml): 3; MIC of fusidic acid ([1]; PMEN 30 μg/ml): 1; MIC of fusidic acid ([2]; PMEN 0 μg/ml, E. coli): 100; MIC of fusidic acid ([2]; PMEN 0.3 μg/ml, E. coli): 10; MIC of fusidic acid ([2]; PMEN 1.0 μg/ml, E. coli): 10; MIC of fusidic acid ([2]; PMEN 3.0 μg/ml, E. coli): 3; MIC of fusidic acid ([2]; PMEN 10 μg/ml, E. coli): 3; MIC of fusidic acid ([2]; PMEN 30 μg/ml, E. coli): 1
CCOC(=O)CCC(=O)O[C@H]1[C@H](O[C@@H]2[C@@H](C)[C@H](O[C@H]3C[C@@](C)(OC)[C@@H](O)[C@H](C)O3)[C@@H](C)C(=O)O[C@H](CC)[C@@](C)(O)[C@H](O)[C@@H](C)C(=O)[C@H](C)C[C@@]2(C)O)O[C@H](C)C[C@@H]1N(C)C [Erythromycin, erythromycin ethylsuccinate]	≥ 100	30	10	10	3	3	≥ 30 times	≥ 100 times	30 µg/mL	1 µg/mL	1 µg/mL	1 µg/mL	1 µg/mL	Number of dead mice ([3]; day 1 after infection, erythromycin 10 mg/kg i.p., PMBN 10 mg/kg s.c.): 7; Number of dead mice ([3]; day 2 after infection): 8; Number of dead mice ([3]; day 3 after infection): 9; Number of dead mice ([3]; day 4 after infection): 9; Number of dead mice ([3]; day 5 after infection): 9; Number of dead mice ([3]; day 6 after infection): 9; Number of dead mice ([3]; day 7 after infection): 9; therapeutic action against the E. coli infection ([3]; mice, erythromycin 10 mg/kg, PMBN 10 mg/kg): without any therapeutic action
CC1(C)S[C@@H]2[C@H](NC(=O)Cc3ccccc3)C(=O)N2[C@H]1C(=O)O [Benzylpenicillin, benzylpenicillin]	10	10	10	3	3	1	10 times	3 times	10 µg/mL	10 µg/mL	10 µg/mL	3 µg/mL	3 µg/mL	
polymyxin B nonapeptide [PMBN]														concentration of PMBN required to sensitize the bacteria to most antibiotics by a factor of 10-30 ([1]; S. typhimurium SL 696): 1-3 μg/ml; concentration of PMBN that sensitized the strains to killing by 10% NHS ([4]; E. coli strains, 10% normal human serum, 2 h): 0.3 µg/mL; bactericidal action of serum in the presence of PMBN after inactivation of complement ([4]; complement destroyed by heat (30 min at 56° C.) or zymosan A): the serum lost its capacity to kill bacteria; also recorded: NHS lost its bactericidal, PMBN-dependent action; amount of PMBN sufficient to sensitize E. coli to erythromycin and fusidic acid by a factor of 30 ([2]; E. coli): 0.3 µg
CO[C@@H]1[C@@H](OC(N)=O)[C@@H](O)[C@H](Oc2ccc3c(O)c(NC(=O)c4ccc(O)c(CC=C(C)C)c4)c(=O)oc3c2C)OC1(C)C [Novobiocin, novobiocin]	≥ 100	10	3	3	1	1	≥ 100 times	10 times	30 µg/mL	10 µg/mL	10 µg/mL	3 µg/mL	3 µg/mL	
Cc1onc(-c2ccccc2Cl)c1C(=O)N[C@@H]1C(=O)N2[C@@H]1SC(C)(C)[C@@H]2C(=O)O [Cloxacillin, cloxacillin]	≥ 1000	300	100	100	30	30	≥ 30 times	100 times	> 300 µg/mL	100 µg/mL	100 µg/mL	30 µg/mL	30 µg/mL	
CO[C@H]1/C=C/O[C@@]2(C)Oc3c(C)c(O)c4c(O)c(c(/C=N/N5CCN(C)CC5)c(O)c4c3C2=O)NC(=O)/C(C)=C\C=C\[C@H](C)[C@H](O)[C@@H](C)[C@@H](O)[C@@H](C)[C@H](OC(C)=O)[C@@H]1C [Rifampicin]								100 times	3 µg/mL	3 µg/mL	0.1 µg/mL	0.03 µg/mL	0.03 µg/mL	
CCC[C@@H]1C[C@@H](C(=O)N[C@@H]([C@H]2O[C@H](SC)[C@H](O)[C@@H](O)[C@H]2O)[C@H](C)Cl)N(C)C1.Cl [Clindamycin, clindamycin hydrochloride]									30 µg/mL	3 µg/mL	3 µg/mL	3 µg/mL	3 µg/mL	
CCOc1ccc2ccccc2c1C(=O)N[C@@H]1C(=O)N2[C@@H]1SC(C)(C)[C@@H]2C(=O)O [Nafcillin, nafcillin]	≥ 1000	≥ 1000	100	100	30	30	≥ 30 times							
